According to patent publication US12296006B2, “Anti-LY6H antibodies and antibody drug conjugates” (Bluefin BioMedicine, Inc., priority 2017, dated 2025):
Read-outs that look alike come from different tables or passages of the source.

System: DMS79 cells
Assay: In vitro growth inhibition and isobologram analysis (CellTiter Glo): DMS79
Type: cell-based, human
Conditions: 5 days, read-out: IC50 (growth), DMS79, alone
Protocol: SCLC cells were seeded onto 96 well plates at 3000-5,000 cells/well on the day of treatment. To distinguish synergy from additivity of the combination of LY6H-PBD with Olaparib (selleckchem, Cat #S1060), etoposide (Cell Signaling Technology, Cat #2200S) or cisplatin (Sigma, Cat #P4394), for each combination, a specific isobologram was constructed. […] Concentrations ranging from 0.0001-10 ug/ml were used for 12G7-PBD, from 0.0001 to 100 uM for olaparib, cisplatin, and etoposide. Cell viability was measured 5 days later by CellTiter Glo® Luminescent Cell viability Assay™ (Promega, Madison, WI) according to manufacturer's instructions. Each IC50 was graphically derived from the growth curve graphed by Prism™ showing percent survival vs log drug concentrations.
The 50% growth-inhibitory activity of the drug combinations was measured after 5 days of treatment. The line of additivity for the isobologram was constructed by interpolating the two points corresponding to the IC50 of the two drugs alone. Graphically, synergy, additivity, and antagonism are indicated by a point plotted below, on, or above the line of additivity, respectively.

O=C(c1cc(Cc2n[nH]c(=O)c3ccccc23)ccc1F)N1CCN(C(=O)C2CC2)CC1 [olaparib]
IC50 (Homo sapiens, DMS-79, 120 h): 4070 nM

N.N.[Cl][Pt][Cl] [cisplatin]
IC50: 310 nM

COc1cc([C@@H]2c3cc4c(cc3[C@@H](O[C@@H]3O[C@@H]5CO[C@@H](C)O[C@H]5[C@H](O)[C@H]3O)[C@H]3COC(=O)[C@H]23)OCO4)cc(OC)c1O [etoposide]
IC50 (Homo sapiens, DMS-79, 120 h): 290 nM
